The values below come from patent US20220089541A1, “Compounds for the Treatment of Kinase-Dependent Disorders” (Exelixis, Inc., priority 2019, published 2022).

The target in one data set is T1, Mer (Homo sapiens, UniProt Q12866).
T1 construct: host or cells: 293A cells (Thermo Fisher #R70507)
T1 sequence (Q12866 21-999): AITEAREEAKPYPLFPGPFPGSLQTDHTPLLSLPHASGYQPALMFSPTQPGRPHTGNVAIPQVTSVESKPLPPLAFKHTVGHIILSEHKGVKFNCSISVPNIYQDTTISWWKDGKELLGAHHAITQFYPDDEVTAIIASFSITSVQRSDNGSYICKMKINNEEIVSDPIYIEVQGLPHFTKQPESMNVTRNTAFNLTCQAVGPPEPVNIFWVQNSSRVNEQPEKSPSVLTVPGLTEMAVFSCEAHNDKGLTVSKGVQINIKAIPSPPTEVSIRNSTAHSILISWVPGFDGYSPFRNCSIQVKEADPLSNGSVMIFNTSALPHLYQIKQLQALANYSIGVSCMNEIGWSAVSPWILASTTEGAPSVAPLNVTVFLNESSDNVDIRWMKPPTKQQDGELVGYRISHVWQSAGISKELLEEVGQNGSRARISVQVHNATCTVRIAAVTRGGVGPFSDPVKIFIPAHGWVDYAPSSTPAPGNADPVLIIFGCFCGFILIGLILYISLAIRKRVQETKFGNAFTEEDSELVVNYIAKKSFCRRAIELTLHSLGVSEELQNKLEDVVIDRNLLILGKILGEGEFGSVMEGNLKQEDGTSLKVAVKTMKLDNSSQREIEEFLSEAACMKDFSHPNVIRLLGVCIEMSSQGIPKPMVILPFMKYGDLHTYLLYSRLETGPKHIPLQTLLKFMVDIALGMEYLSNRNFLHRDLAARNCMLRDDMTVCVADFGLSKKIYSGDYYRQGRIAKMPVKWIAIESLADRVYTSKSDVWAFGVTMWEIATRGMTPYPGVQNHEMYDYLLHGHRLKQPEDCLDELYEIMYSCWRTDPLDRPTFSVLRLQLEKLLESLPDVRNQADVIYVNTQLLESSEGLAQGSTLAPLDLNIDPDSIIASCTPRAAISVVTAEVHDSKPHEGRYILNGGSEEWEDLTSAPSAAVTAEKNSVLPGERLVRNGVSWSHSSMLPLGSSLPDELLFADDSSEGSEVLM
Nature of the data set: Mer autophosphorylation ELISA in transient transfected 293A cells. The settings on record: 293A cells transfected with MERTK DNA, phospho-Mer ELISA, 1 h compound incubation. The data set is classed as cell-based. As for the experimental part:
Example D: Mer Autophosphorylation ELISA in Transient Transfected 293A Cells
293A cells (Thermo Fisher #R70507) were seeded at 1.5×10^6 cells/well onto 100 mm dish (Greiner #664169), in DMEM (Thermo Fisher #11995-040) containing 10% FBS (Thermo Fisher #26140-079), 1% MEM NEAA (Thermo Fisher #11140-050), 1% GlutaMax (Thermo Fisher #35050-061), and 1% Penicillin Streptomycin (Thermo Fisher #15140-122). 293A cells were incubated at 37° C., 5% CO2 for 24 h and then transfected with 6 μg MERTK DNA (Genecopoeia #EX-Z8208-M02) using TransIT LT1 transfection reagent (Mirus-Bio #MIR2305). After 24 h incubation, the transfected 293A cells were seeded at 1×10^5 cells/well onto 96-well plates (Corning #3904) in DMEM growth medium overnight. Test compounds were serially diluted to produce an 8-point dose curve in fresh serum-free medium to a final concentration of 0.3% DMSO (vehicle) and added to the cells and incubated for 1 h. Cells were then immediately lysed with 150 μL of cold IX lysis buffer [20 mM Tris, 137 mM sodium chloride, 2 mM EDTA, 10% glycerol, l % NP-40 alternative, 1 mM activated sodium orthovanadate, 1 mM PefaBloc SC (Sigma-Aldrich #11429868001), protease/phosphatase inhibitor tablet (Thermo Fisher #A32959)]. Lysates were clarified by centrifugation and 50 μL/well added into the human phospho-Mer DuoSet IC ELISA (R&D Systems #DYC2579-2). Assay was performed according to manufacturer's instructions and sample phospho-Mer concentrations were extrapolated using human phospho-Mer control (R&D Systems #841793) as a standard. Positive control wells (100% activity) contained DMSO-treated cell lysates. Negative control wells (0% activity) contained reference inhibitor-treated cell lysates. IC50 values were calculated by nonlinear regression analysis using a 4-parameter logistic curve fit in ActivityBase XE (IDBS).
For orientation: In an ELISA, binding on a coated surface is turned into a signal by an enzyme label.

The target of the next data set is T2, Met (Homo sapiens, UniProt P08581).
T2 construct: host or cells: PC-3 prostate cancer cells
Nature of the data set: Met autophosphorylation ELISA in PC-3 cells. The data set is classed as cell-based. The settings on record: PC-3 prostate cancer cells, HGF-stimulated, phospho-Met ELISA, 1 h compound incubation; read-out: c-Met IC50. The method, then: Example B: Met Autophosphorylation ELISA in PC-3 Cells
PC-3 prostate cancer cells (ATCC #CRL-1435) were seeded at 4×10^4 cells/well onto 24-well plates (Greiner #662165), in DMEM (Thermo Fisher #11995-040) containing 10% FBS (Thermo Fisher #26140-079), 1% MEM NEAA (Thermo Fisher #11140-050), 1% GlutaMax (Thermo Fisher #35050-061), and 1% Penicillin Streptomycin (Thermo Fisher #15140-122). PC-3 cells were incubated at 37° C., 5% CO2 for 24 h and then starved for 3 h in serum-free medium. Test compounds were serially diluted to produce an 8-point dose curve in fresh serum-free medium to a final concentration of 0.3% DMSO (vehicle) and added to the cells and incubated for 1 h. Cells were then stimulated with 100 ng/mL recombinant human HGF (R&D Systems #294-HG-250) for 10 min, washed with cold PBS, and immediately lysed with 130 μL of cold IX lysis buffer [20 mM Tris, 137 mM sodium chloride, 2 mM EDTA, 10% glycerol, 1% NP-40 alternative, 1 mM activated sodium orthovanadate, 1 mM PefaBloc SC (Sigma-Aldrich #11429868001), protease/phosphatase inhibitor tablet (Thermo Fisher #A32959)]. Lysates were clarified by centrifugation and 100 μL/well added into the PathScan phospho-Met (panTyr) Sandwich ELISA (Cell Signaling Technology #7333). Assay was performed according to manufacturer's instructions. Positive control wells (100% activity) contained HGF-stimulated, DMSO-treated cell lysates. Negative control wells (0% activity) contained HGF-stimulated, reference inhibitor-treated cell lysates. IC50 values were calculated by nonlinear regression analysis using a 4-parameter logistic curve fit in ActivityBase XE (IDBS).

Data set [1] can be described thus: Microsomal assay, rat liver microsome stability. To be noted: liver microsomes, pH 7.4. A general note: Liver microsomes are vesicles of endoplasmic reticulum, rich in cytochrome P450 enzymes.
Protocol: (§1) Liver microsomes tissue fractions were used for in vitro assessment of metabolic stability of compounds by cytochrome P450 (CYP450) (for example, CYP3A4, CYP2C9) mediated phase I oxidation, and metabolism through other pathways. Human, mouse, rat, and dog liver microsomes tissue fractions were obtained from Corning Gentest and BioreclamationIVT.
(§2) The assay was carried out in 96-well microtiter plates. Compounds were incubated (N=l) at 37° C. in the presence of liver microsomes. Reaction mixtures (25 μL) contained a final concentration of 1 μM test compound, 0.5 mg/mL liver microsomes (LM) protein, and 1 mM NADPH in 100 mM potassium phosphate, pH 7.4 buffer with 3.3 mM MgCl2. The extent of metabolism was calculated as the disappearance of the test compound, compared to the 0-min control reaction incubations. Verapamil was included as a positive control to verily assay performance.
(§3) At each of the four time points, 150 μL of quench solution (100% acetonitrile with 0.1% formic acid) with internal standard (bucetin for positive ESI mode) was transferred to each well. Plates were sealed and centrifuged at 10° C. for 15 minutes at 4000 rpm. The supernatant was transferred to fresh plates for LC/MS/MS analysis.
(§4) All samples were analyzed on LC/MS/MS using an AB Sciex API 4000 instrument, coupled to a Shimadzu LC-20AD LC Pump system. Analytical samples were separated using a Waters Atlantis T3 dC18 reverse phase HPLC column (20 mm×2.1 mm) at a flow rate of 0.5 mL/min. The mobile phase consisted of 0.1% formic acid in water (solvent A) and 0.1% formic acid in 100% acetonitrile (solvent B).
A short description of data set [2]: Microsomal assay, human liver microsome stability. The settings on record: liver microsomes, pH 7.4.
Protocol: as §1, §2, §3, §4

T2 sequence (P08581 25-1390): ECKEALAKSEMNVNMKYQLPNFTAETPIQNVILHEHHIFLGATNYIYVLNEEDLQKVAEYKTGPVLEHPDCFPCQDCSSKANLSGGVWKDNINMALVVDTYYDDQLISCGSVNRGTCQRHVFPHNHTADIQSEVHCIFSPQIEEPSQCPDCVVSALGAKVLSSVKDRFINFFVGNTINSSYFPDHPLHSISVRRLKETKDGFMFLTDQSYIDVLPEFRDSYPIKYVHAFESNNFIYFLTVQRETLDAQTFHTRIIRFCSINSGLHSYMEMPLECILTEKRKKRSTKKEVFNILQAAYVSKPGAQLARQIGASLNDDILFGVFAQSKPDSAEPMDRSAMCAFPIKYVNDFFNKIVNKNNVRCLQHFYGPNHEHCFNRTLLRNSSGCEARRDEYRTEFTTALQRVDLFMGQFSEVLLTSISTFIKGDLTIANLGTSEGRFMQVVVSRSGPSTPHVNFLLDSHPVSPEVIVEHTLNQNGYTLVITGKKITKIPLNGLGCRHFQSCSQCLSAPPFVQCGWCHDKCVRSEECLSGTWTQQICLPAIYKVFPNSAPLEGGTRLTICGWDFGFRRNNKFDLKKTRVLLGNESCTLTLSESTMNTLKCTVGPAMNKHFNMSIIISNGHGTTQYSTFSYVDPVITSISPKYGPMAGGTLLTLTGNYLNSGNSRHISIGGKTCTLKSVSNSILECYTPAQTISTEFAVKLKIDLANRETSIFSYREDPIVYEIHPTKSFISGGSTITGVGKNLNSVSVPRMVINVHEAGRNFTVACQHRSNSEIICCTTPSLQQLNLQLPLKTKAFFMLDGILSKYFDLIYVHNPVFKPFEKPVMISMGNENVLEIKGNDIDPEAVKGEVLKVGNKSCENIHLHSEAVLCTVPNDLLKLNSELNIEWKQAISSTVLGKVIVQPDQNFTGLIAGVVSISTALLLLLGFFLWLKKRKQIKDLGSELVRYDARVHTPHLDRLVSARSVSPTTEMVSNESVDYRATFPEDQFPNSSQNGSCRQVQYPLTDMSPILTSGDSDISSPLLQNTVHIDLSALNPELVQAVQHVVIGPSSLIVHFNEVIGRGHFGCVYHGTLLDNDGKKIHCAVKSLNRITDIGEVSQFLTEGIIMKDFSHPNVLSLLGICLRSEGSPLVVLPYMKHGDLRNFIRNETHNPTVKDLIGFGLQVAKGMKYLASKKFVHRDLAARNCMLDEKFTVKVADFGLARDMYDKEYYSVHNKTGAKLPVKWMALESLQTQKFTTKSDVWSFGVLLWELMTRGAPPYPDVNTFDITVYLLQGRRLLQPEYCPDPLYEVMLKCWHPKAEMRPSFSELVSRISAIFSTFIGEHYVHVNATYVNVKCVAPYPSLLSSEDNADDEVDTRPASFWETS

As a reminder, the IC50 is the concentration that gives 50% inhibition. One may read the half-life as the time in which the quantity being followed falls by half. Read a low half-life as rapid decline. With `COc1cc2nccc(Oc3ncc(NC(=O)C4(C(=O)N(C)c5ccc(F)cc5)CC4)cc3F)c2cc1C(N)=O` [Compound 35, 1-N-[6-(6-Carbamoyl-7-methoxyquinolin-4-yl)oxy-5-fluoropyridin-3-yl]-1-N′-(4-fluorophenyl)-1-N′-methylcyclopropane-1,1-dicarboxamide], the IC50 against Mer and on Met was > 300 nM each time. The half-life at 1 μM in data set [1] stood at 1.2 min; in data set [2], 1.3 min.
`COc1cc2nccc(Oc3ccc(NC(=O)C4(C(=O)N(C)c5ccc(F)cc5)CC4)cc3F)c2cc1OC` [Compound 10, N-(4-((6,7-Dimethoxyquinolin-4-yl)oxy)-3-fluorophenyl)-N-(4-fluorophenyl)-N-methylcyclopropane-1,1-dicarboxamide]: the half-maximal inhibitory concentration (IC50) at Mer and on Met was > 300 nM each time. Also, the half-life at 1 μM in data set [1] and in data set [2] was 1.3 min each time.
For `COc1cc2nccc(Oc3ccc(NC(=O)C4(C(=O)N(C)c5ccc(F)cc5)CC4)cc3)c2cc1OC` [Compound 9, 1-N-[4-(6,7-Dimethoxyquinolin-4-yl)oxyphenyl]-1-N′-(4-fluorophenyl)-1-N′-methylcyclopropane-1,1-dicarboxamide], the IC50 against Mer and at Met was > 300 nM throughout. For the same molecule, the half-life at 1 μM in data set [1] and in data set [2] was 1.4 min each time.
Turning to `COc1cc2nccc(Oc3ccc(N(C)C(=O)C4(C(=O)Nc5ccc(F)cc5)CC4)cc3F)c2cc1OC` [Compound 51, 1-N′-[4-(6,7-Dimethoxyquinolin-4-yl)oxy-3-fluorophenyl]-1-N-(4-fluorophenyl)-1-N′-methylcyclopropane-1,1-dicarboxamide], the IC50 against Mer and at Met was > 300 nM each time. For the same molecule, the half-life at 1 μM in data set [1] turned out to be 14.3 min; in data set [2], 29.7 min.
Regarding `CNC(=O)c1cc2c(Oc3ncc(NC(=O)C4(C(=O)N(C)c5ccc(F)cc5)CC4)cc3F)ccnc2cc1OC` [Compound 34, 1-N-[5-Fluoro-6-[7-methoxy-6-(methylcarbamoyl)quinolin-4-yl]oxypyridin-3-yl]-1-N′-(4-fluorophenyl)-1-N′-methylcyclopropane-1,1-dicarboxamide], the IC50 at Mer and on Met was > 300 nM each time. Besides, the half-life at 1 μM in data set [1] and in data set [2] was 1.3 min throughout.
